Experimental data published in patent US20190365741A1, “COMBINATIONS OF THE CDK4/6 INHIBITOR LEE011 AND THE MEK1/2 INHIBITOR TRAMETINIB, OPTIONALLY FURTHER COMPRISING THE PI3K INHIBITOR BYL719 TO TREAT CANCER” (Novartis AG, priority 2015, published 2019).
Entries after “also recorded” stand apart in the source; their conditions may differ.

Key:
Assay type in all cases: cell-based
GP2d = experiment: Cell proliferation (cell count by microscopy), single agents and combinations; conditions: 72 h, concentration giving 50% of cell counts relative to DMSO
Protocol: (§1) The compounds were dissolved in 100% DMSO (Sigma, Catalog number D2650) at concentrations of 20 mM and stored at −20° C. until use.
(§2) Colorectal cancer cell lines used for this study were obtained, cultured and processed from commercial vendors ATCC, CellBank Australia, DMSZ, ECACC, and HSRRB (Table 1). All cell line media were supplemented with 10% FBS (HyClone, Catalog number SH30071.03).
(§3) Cell lines were cultured in 37° C. and 5% CO2 incubator and expanded in T-75 flasks. In all cases cells were thawed from frozen stocks, expanded through≥1 passage using 1:3 dilutions, counted and assessed for viability using a ViCell counter (Beckman-Coulter) prior to plating. […] All cell lines were determined to be free of mycoplasma contamination as determined by a PCR detection methodology performed at Idexx Radil (Columbia, Mo., USA) and correctly identified by detection of a panel of SNPs.
(§4) The debris counts were subtracted from raw nuclei counts.
(§5) The compound's effect on cell proliferation was calculated from the cell counts of the treatments relative to the cell counts of the negative control (DMSO), in FIG. 1 and FIG. 3 denoted as ‘Normalized cell count’ (=‘xnorm’) on the y-axis. […] The model input were inhibition values per drug dose:
(§6) I=1−xnorm • I: inhibition • xnorm: normalized cell count (median of three replicates)
(§7) To favor combination effects at high inhibition the residuals were weighted with the observed inhibition at the same dose point. The overall combination score C of a drug combination is the sum of the weighted residuals over all concentrations:
(§8) C=ΣCone (Idata*(Idata−Imodel)) • Idata: measured inhibition Imodel: inhibition according to HSA null hypothesis
(§9) Robust combination z-scores (zC) were calculated as the ratio of the treatments' combination scores C and the median absolute deviation (mad) of non-interacting combinations:
(§10) zC=C/mad(Czero) • Czero: combination scores of non-interacting combinations zC is an indicator for the strength of the combination with:
(§11) In order to assess the effect of the triple combination all individual compounds, all three pair wise combinations, and the triple combination were tested in the same experiment.
(§12) (Boston Bioproducts, Catalog number BM-220).

LoVo = experiment: as above; conditions: Homo sapiens, 96 h, concentration giving 50% of cell counts relative to DMSO
Protocol: as §1, §2, §3, §4, §5, §6, §7, §8, §9, §10, §11, §12

DLD-1 = experiment: as above; conditions: Homo sapiens; DLD-1, 72 h, concentration giving 50% of cell counts relative to DMSO
Protocol: as §1, §2, §3, §4, §5, §6, §7, §8, §9, §10, §11, §12

COLO-320 = experiment: as above; conditions: Homo sapiens; COLO-320, 72 h, concentration giving 50% of cell counts relative to DMSO
Protocol: as §1, §2, §3, §4, §5, §6, §7, §8, §9, §10, §11, §12

OUMS-23 = experiment: as above; conditions: OUMS-23, 72 h, concentration giving 50% of cell counts relative to DMSO
Protocol: as §1, §2, §3, §4, §5, §6, §7, §8, §9, §10, §11, §12

RKO = experiment: as above; conditions: Homo sapiens, 72 h, concentration giving 50% of cell counts relative to DMSO
Protocol: as §1, §2, §3, §4, §5, §6, §7, §8, §9, §10, §11, §12

SW837 = experiment: as above; conditions: Homo sapiens; SW837, 72 h, concentration giving 50% of cell counts relative to DMSO
Protocol: as §1, §2, §3, §4, §5, §6, §7, §8, §9, §10, §11, §12

NCI-H508 = experiment: as above; conditions: Homo sapiens; NCI-H508, 72 h, concentration giving 50% of cell counts relative to DMSO
Protocol: as §1, §2, §3, §4, §5, §6, §7, §8, §9, §10, §11, §12

HT-29 = experiment: as above; conditions: Homo sapiens; HT-29, 72 h, concentration giving 50% of cell counts relative to DMSO
Protocol: as §1, §2, §3, §4, §5, §6, §7, §8, §9, §10, §11, §12

LS411N = experiment: as above; conditions: Homo sapiens, LS-411N, 72 h, concentration giving 50% of cell counts relative to DMSO
Protocol: as §1, §2, §3, §4, §5, §6, §7, §8, §9, §10, §11, §12

COLO-205 = experiment: as above; conditions: Homo sapiens; COLO-205, 72 h, concentration giving 50% of cell counts relative to DMSO
Protocol: as §1, §2, §3, §4, §5, §6, §7, §8, §9, §10, §11, §12

HCT-116 = experiment: as above; conditions: Homo sapiens; HCT-116, 72 h, concentration giving 50% of cell counts relative to DMSO
Protocol: as §1, §2, §3, §4, §5, §6, §7, §8, §9, §10, §11, §12

SW480 = experiment: as above; conditions: Homo sapiens; SW480, 72 h, concentration giving 50% of cell counts relative to DMSO
Protocol: as §1, §2, §3, §4, §5, §6, §7, §8, §9, §10, §11, §12

LS-180 = experiment: as above; conditions: Homo sapiens, LS180; LS-180, 72 h, concentration giving 50% of cell counts relative to DMSO
Protocol: as §1, §2, §3, §4, §5, §6, §7, §8, §9, §10, §11, §12

LIM2551 = experiment: as above; conditions: LIM2551, 72 h, concentration giving 50% of cell counts relative to DMSO
Protocol: as §1, §2, §3, §4, §5, §6, §7, §8, §9, §10, §11, §12

[1] = tested on: 15 colorectal cancer cell lines; experiment: Cell proliferation, summary over the cell line panel; conditions: single agent, across the cell lines in which growth was inhibited
Protocol: as §1, §2, §4
as §5, with “dose: […]” for “dose:”
as §12

| IC50 (LoVo) | IC50 (DLD-1) | IC50 (COLO-320) | IC50 (SW837) | IC50 (NCI-H508) | IC50 (HT-29) | IC50 (COLO-205) | IC50 (HCT-116) | IC50 (SW480) | IC50 values, magnitude in words [1] | SMILES | IC50 (GP2d) | IC50 (OUMS-23) | IC50 (RKO) | IC50 (LS411N) | IC50 (LS-180) | IC50 (LIM2551) |
| --- | --- | --- | --- | --- | --- | --- | --- | --- | --- | --- | --- | --- | --- | --- | --- | --- |
| > 10 µM | > 10 µM | 8.3 µM | > 10 µM | 0.5 µM | 2.7 µM | > 10 µM | 9.8 µM | > 10 µM | mostly micromolar | Cc1nc(NC(=O)N2CCC[C@H]2C(N)=O)sc1-c1ccnc(C(C)(C)C(F)(F)F)c1 [BYL719, (S)-Pyrrolidine-1,2-dicarboxylic acid 2-amide 1-({4-methyl-5-[2-(2,2,2-trifluoro-1,1-dimethyl-ethyl)-pyridin-4-yl]-thiazol-2-yl}-amide)] | 0.5 µM | > 10 µM | 3.9 µM | > 10 µM | > 10 µM | 2.3 µM |
| 0.007 µM | 0.153 µM | > 0.3 µM | 0.051 µM | 0.007 µM | 0.004 µM | 0.004 µM | 0.038 µM | 0.055 µM | nanomolar to sub-micromolar | CC(=O)Nc1cccc(-n2c(=O)n(C3CC3)c(=O)c3c(Nc4ccc(I)cc4F)n(C)c(=O)c(C)c32)c1 [Trametinib, N-{3-[3-cyclopropyl-5-(2-fluoro-4-iodo-phenylamino)6,8-dimethyl-2,4,7-trioxo-3,4,6,7-tetrahydro-2H-pyrido[4,3-d]pyrimidin-1-yl]phenyl}acetamide] | > 0.3 µM | > 0.3 µM | 0.021 µM | 0.007 µM | 0.018 µM | 0.005 µM |

| SMILES | IC50 (LoVo) | IC50 (DLD-1) | IC50 (COLO-320) | IC50 (SW837) | IC50 (NCI-H508) | IC50 (HT-29) | IC50 (COLO-205) | IC50 (HCT-116) | IC50 (SW480) | IC50 values, magnitude in words [1] | IC50 (GP2d) | IC50 (OUMS-23) | IC50 (RKO) | IC50 (LS411N) | IC50 (LS-180) | IC50 (LIM2551) |
| --- | --- | --- | --- | --- | --- | --- | --- | --- | --- | --- | --- | --- | --- | --- | --- | --- |
| CN(C)C(=O)c1cc2cnc(Nc3ccc(N4CCNCC4)cn3)nc2n1C1CCCC1 [LEE011, 7-Cyclopentyl-2-(5-piperazin-1-yl-pyridin-2-ylamino)-7H-pyrrolo[2,3-d]pyrimidine-6-carboxylic acid dimethylamide] | 0.8 µM | 4.1 µM | 2.8 µM | > 10 µM | 0.7 µM | 0.8 µM | 1.1 µM | 4.5 µM | 1.6 µM | mostly micromolar; also recorded: sub-micromolar to micromolar | 4.5 µM | > 10 µM | 1.5 µM | 2.1 µM | 1.8 µM | 1.3 µM |
